Where a chain is given by its changes, count along the chain named.
Key:
Lys251 alpha-2AAR [1] = biological target: T1, Lys251 alpha-2AAR (Homo sapiens, UniProt P08913, N266K); experiment: [35S]GTPγS binding, membranes of COS-7 cells coexpressing Giα2; format: biochemical; design: expressed in transfected cells; membranes or intact cells; settings: 10 μM agonist
T1 sequence (P08913 16-465 N266K): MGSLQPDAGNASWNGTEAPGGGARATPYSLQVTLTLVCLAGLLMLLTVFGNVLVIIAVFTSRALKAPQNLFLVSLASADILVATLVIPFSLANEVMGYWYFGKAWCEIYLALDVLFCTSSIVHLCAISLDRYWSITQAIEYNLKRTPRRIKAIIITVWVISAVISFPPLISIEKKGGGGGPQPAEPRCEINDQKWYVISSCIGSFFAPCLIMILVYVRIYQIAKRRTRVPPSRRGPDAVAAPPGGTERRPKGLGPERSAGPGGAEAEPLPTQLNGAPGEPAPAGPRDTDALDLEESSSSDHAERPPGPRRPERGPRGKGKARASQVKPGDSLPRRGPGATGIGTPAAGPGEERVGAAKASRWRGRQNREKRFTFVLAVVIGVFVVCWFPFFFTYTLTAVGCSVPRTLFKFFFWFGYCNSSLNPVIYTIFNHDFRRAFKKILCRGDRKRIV
Protocol: Receptor-G protein interaction was quantitated by [^35S] radiolabeled guanosine-5′-O-(3-thiotriphosphate) ([^35S]GTPγS) binding in COS-7 cells transiently transfected with each alpha-2AAR construct and Giα2. […] Nonspecific binding was measured in the presence of 10 μM GTPγS.

wild-type alpha-2CAR [2] = biological target: T2, wild-type alpha-2CAR (Homo sapiens, UniProt P18825, L239R/R446P/S401I); settings: 10 μM epinephrine, 5 min; 806±140 fmol/mg
T2 sequence (P18825 1-462 L239R/S401I/R446P): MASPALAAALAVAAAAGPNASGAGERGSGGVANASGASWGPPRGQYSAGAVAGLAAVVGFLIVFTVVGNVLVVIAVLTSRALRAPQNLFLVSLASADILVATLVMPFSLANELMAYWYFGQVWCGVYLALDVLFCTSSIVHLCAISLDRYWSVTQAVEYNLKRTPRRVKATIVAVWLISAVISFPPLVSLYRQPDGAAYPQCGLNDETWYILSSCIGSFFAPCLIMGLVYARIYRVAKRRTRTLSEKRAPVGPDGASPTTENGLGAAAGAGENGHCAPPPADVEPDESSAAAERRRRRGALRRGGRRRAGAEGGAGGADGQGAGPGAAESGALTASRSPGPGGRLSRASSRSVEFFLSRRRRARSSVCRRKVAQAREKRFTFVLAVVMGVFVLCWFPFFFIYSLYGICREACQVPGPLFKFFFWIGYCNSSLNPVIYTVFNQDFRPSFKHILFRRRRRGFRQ

wild-type alpha-2CAR [3] = biological target: T2, wild-type alpha-2CAR; settings: 10 μM epinephrine; thrombin 1 unit/ml
wild-type alpha-2CAR [4] = biological target: T2, wild-type alpha-2CAR; experiment: Inhibition of forskolin stimulated adenylyl cyclase, CHO membranes; format: biochemical; design: expressed in transfected cells; membranes or intact cells; settings: lower expressing line 565±69 fmol/mg
Source text: (§1) Reactions were terminated by the addition of a stop solution containing excess ATP and cAMP and ˜100,000 dpm of [^3H]cAMP. Labeled cAMP was isolated by gravity chromatography over alumina columns with [^3H]cAMP used to quantitate column recovery. […] Results are expressed as percent inhibition of forskolin stimulated activity.

[5] = biological target: T3, wild-type Asn251 alpha-2AAR (Homo sapiens, UniProt P08913); settings: 5.0 μM forskolin, no agonist
T3 sequence (P08913 16-465): T1 sequence (P08913 16-465 N266K) with K251N
Protocol: (§2) Alpha-2AAR inhibition of adenylyl cyclase was determined in membrane preparations from CHO cells stably expressing the two receptors using methods similar to those previously described (18). […] Reactions were terminated by the addition of a stop solution containing excess ATP and cAMP and ˜100,000 dpm of [^3H]cAMP. Labeled cAMP was isolated by gravity chromatography over alumina columns with [^3H]cAMP used to quantitate column recovery. […] Results are expressed as percent inhibition of forskolin stimulated activity.

Lys251 alpha-2AAR [6] = biological target: T1, Lys251 alpha-2AAR
Protocol: as §2

wild-type alpha-2BAR [7] = biological target: T4, wild-type alpha-2BAR (Homo sapiens, UniProt P18089); experiment: Inhibition of forskolin stimulated adenylyl cyclase and desensitization, CHO membranes; format: biochemical; design: The human receptor consists of 450 amino acids; expressed in transfected cells
T4 sequence (P18089 1-450): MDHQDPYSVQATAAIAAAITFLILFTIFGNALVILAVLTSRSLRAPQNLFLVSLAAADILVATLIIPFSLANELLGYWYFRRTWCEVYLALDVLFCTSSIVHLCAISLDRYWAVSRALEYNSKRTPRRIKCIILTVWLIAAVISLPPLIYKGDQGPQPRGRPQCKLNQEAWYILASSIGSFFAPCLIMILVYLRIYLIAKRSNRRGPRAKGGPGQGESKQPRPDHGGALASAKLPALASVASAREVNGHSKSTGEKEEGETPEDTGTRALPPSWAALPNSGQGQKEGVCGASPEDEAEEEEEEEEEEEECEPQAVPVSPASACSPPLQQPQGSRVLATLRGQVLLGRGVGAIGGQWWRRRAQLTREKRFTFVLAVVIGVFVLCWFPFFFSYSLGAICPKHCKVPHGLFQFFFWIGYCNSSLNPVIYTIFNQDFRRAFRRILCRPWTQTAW
Protocol: For desensitization experiments, cells were pretreated for 30 min at 37° with media alone or with media containing 10 μM norepinephrine, placed on ice, and washed five times with cold PBS prior to membrane preparation. Desensitization of alpha-2BAR is manifested by a shift to the right in the dose-response curve for the inhibition of adenylyl cyclase (i.e., increase in EC50) without a significant change in the maximal response (17-19). To quantitate the magnitude of this desensitization, the inhibitory response under control conditions at a submaximal concentration of agonist (the EC50) in the assay was determined from the curve and compared to the response to this same concentration from membranes derived from cells exposed to norepinephrine. This method has been previously validated (26) in several G protein coupled receptor systems.

wild-type alpha-2CAR [8] = biological target: T5, wild-type alpha-2CAR (Homo sapiens, UniProt P18825); experiment: Inhibition of forskolin stimulated adenylyl cyclase, CHO membranes; format: biochemical
T5 construct: expressed in transfected cells; membranes or intact cells
T5 sequence (P18825 1-462 L239R/S401I/R446P): T2 sequence (P18825 1-462 L239R/S401I/R446P)
Source text: as §1

wild-type alpha-2BAR [9] = biological target: T4, wild-type alpha-2BAR; settings: read-out: [125I]-aminoclonidine saturation binding KD

In the case of N=C(N)N/N=C/c1c(Cl)cccc1Cl [guanabenz], the “enhanced [35S]GTPγS binding for Lys251 as compared to the Asn251 receptor” value (from here on “enhanced … compared to the Asn251 receptor”) (Lys251 alpha-2AAR [1]) is reported as 72%.
CCN1CCc2nc(N)oc2CC1 [BHT-933] was tested, and the “enhanced … compared to the Asn251 receptor” value (Lys251 alpha-2AAR [1]) was 45%.
For CNC[C@H](O)c1ccc(O)c(O)c1 [epinephrine], the “accumulation of inositol phosphates over basal” value (wild-type alpha-2CAR [2]) was 30±3%, the “MAP kinase stimulation as a percent of the thrombin response” value (wild-type alpha-2CAR [3]) was 128±10.0% and the “inhibition of adenylyl cyclase” value (wild-type alpha-2CAR [4]) was 73±2.4%.
C=C[C@@]1(C)CC(=O)[C@]2(O)[C@@]3(C)[C@@H](O)CCC(C)(C)[C@@H]3[C@H](O)[C@H](OC(C)=O)[C@@]2(C)O1 [Forskolin, forskolin] was tested, and the “Forskolin adenylyl cyclase activity” value [5] was 32.7 ± 4.0 pmol/min/mg, the “Forskolin adenylyl cyclase activity” value (Lys251 alpha-2AAR [6]; 5.0 μM forskolin, no agonist) was 31.6 ± 6.5 pmol/min/mg and the “Forskolin adenylyl cyclase activity” value (wild-type alpha-2BAR [7]; forskolin 5 μM, no agonist) was 15.1 ± 0.9 pmol/min/mg.
Cc1cc(C(C)(C)C)c(O)c(C)c1CC1=NCCN1 [oxymetazoline] was tested, and the “augmented function of Lys251 compared to the Asn251 receptor” value (Lys251 alpha-2AAR [6]; adenylyl cyclase inhibition) was ~40%.
With Brc1c(NC2=NCCN2)ccc2nccnc12 [UK 14304] the “enhanced … compared to the Asn251 receptor” value (Lys251 alpha-2AAR [1]) was ~40%.
In the case of NC[C@H](O)c1ccc(O)c(O)c1 [norepinephrine], the EC50 (wild-type alpha-2CAR [8]) is reported as 219 ± 13.7 nM, the “enhanced … compared to the Asn251 receptor” value (Lys251 alpha-2AAR [1]) is reported as ~40% and the EC50 (wild-type alpha-2BAR [7]) is reported as 7.9 ± 2.1 nM. For the same compound, the “Max Inhibition (%) of forskolin stimulated adenylyl cyclase” value (wild-type alpha-2BAR [7]; 626±54 fmol/mg) was 28.5 ± 1.6%, the “Desensitization (%)” value (wild-type alpha-2BAR [7]; after 10 μM norepinephrine 30 min) was ~54% and the “Submax inhibition (%) Ctrl” value (wild-type alpha-2BAR [7]; agonist at the EC50 of control membranes, cells pretreated with media alone) was 16.5 ± 3.9%. For the same compound, the “Submax inhibition (%) NE” value (wild-type alpha-2BAR [7]; same agonist concentration, cells pretreated with 10 μM norepinephrine 30 min) was 7.6 ± 2.3 %.
Work on Nc1cc(Cl)c(NC2=NCCN2)c(Cl)c1I [[^125I]-aminoclonidine, aminoclonidine] yielded a Kd (wild-type alpha-2BAR [9]) of 1.33 ± 0.12 nM.

From patent US7041810B2, “Alpha-2 adrenergic receptor polymorphisms” (University Of Cincinnati, priority 2000, dated 2006)
